From ChEMBL document CHEMBL4823314, “Design, synthesis and biological evaluation of novel acridine and quinoline derivatives as tubulin polymerization inhibitors with anticancer activities” (Bioorg Med Chem, 2021)

Legend:
[1] = test system: HeLa; assay: cells; conditions: Homo sapiens, 48 h
Description: Antiproliferative activity against human HeLa cells assessed as reduction in cell viability measured after 48 hrs by MTT assay

[2] = test system: B16-F10; assay: Antiproliferative activity against mouse B16-F10 cells assessed as reduction in cell viability measured after 48 hrs by MTT assay; type: functional, cell-based; conditions: B16-F10, 48 h
[3] = Inhibition of pig brain tubulin polymerization by spectrophotometric method; type: tissue-based, Sus scrofa
[4] = test system: MCF7; assay: cells; conditions: Homo sapiens, MCF7, 48 h
Description: Antiproliferative activity against human MCF7 cells assessed as reduction in cell viability measured after 48 hrs by MTT assay

[5] = test system: HepG2; assay: Antiproliferative activity against human HepG2 cells assessed as reduction in cell viability measured after 48 hrs by MTT assay; type: functional, cell-based; conditions: HepG2, 48 h

SMILES | IC50 [1] [µM] | IC50 [2] [µM] | IC50 [3] [µM] | IC50 [4] [µM] | IC50 [5] [µM]
COc1ccc(/C=C\c2cc(OC)c(OC)c(OC)c2)cc1O [COMBRETASTATIN A4] | 0.023 | 0.014 | 1.84 | 0.019 | –
Fc1ccc(Nc2cccc3ncccc23)cc1Cl | 44.9 | 38.1 | – | 36.4 | 32.1
COc1ccc(Nc2c3ccccc3nc3ccccc23)cc1 | 3.67 | 2.14 | – | 1.23 | 1.47
CCCCN(c1cc(OC)c(OC)c(OC)c1)c1ccnc2cc(Cl)ccc12 | 17.3 | 14.7 | – | 16.4 | 15.4
COc1cc(N(C)c2cccc3ncccc23)cc(OC)c1OC | 8.27 | 6.58 | – | 6.36 | 5.24
COc1cc(Nc2cccc3ncccc23)cc(OC)c1OC | 2.8 | 1.28 | – | 1.14 | 0.783
CCCCN(c1ccc(OC)cc1)c1c2ccc(Cl)cc2nc2ccc(OC)cc12 | 9.82 | 9.04 | – | 9.06 | 8.16
COc1ccc(N(C)c2c3ccc(Cl)cc3nc3ccc(OC)cc23)cc1 | 8.95 | 8.05 | – | 7.77 | 7.24
N#Cc1ccc(Nc2cccc3ncccc23)cc1 | 43.2 | 40.4 | – | 35.6 | 37.5
CCCCN(c1ccccc1)c1cccc2ncccc12 | 29.9 | 27.1 | – | 20 | 22.1
COc1cc(Nc2ccnc(C)c2)cc(OC)c1OC | 16.1 | 18.9 | – | 13.3 | 11.4
COc1ccc(N(C)c2c3ccccc3nc3ccccc23)cc1 | 6.49 | 5.78 | – | 5.17 | 4.18
CCCCN(c1cc(OC)c(OC)c(OC)c1)c1c2ccc(Cl)cc2nc2ccc(OC)cc12 | 6.08 | 4.66 | – | 4.86 | 3.5
COc1ccc(Nc2cccc3ncccc23)cc1 | 4.16 | 4.57 | – | 4.64 | 3.79
COc1cc(Nc2c3ccccc3nc3ccccc23)cc(OC)c1OC | 6.8 | 6.54 | – | 5.67 | 4.46
CCCCN(c1cc(OC)c(OC)c(OC)c1)c1cccc2ncccc12 | 9.29 | 7.65 | – | 8.33 | 7
COc1cc(Nc2ccnc3cc(Cl)ccc23)cc(OC)c1OC | 8.65 | 7.22 | – | 9.27 | 6.82
COc1ccc(Nc2c3ccc(Cl)cc3nc3ccc(OC)cc23)cc1 | 7.2 | 4.98 | – | 5.17 | 3.19
COc1cc(N(C)c2c3ccccc3nc3ccccc23)cc(OC)c1OC | 2.7 | 1.39 | – | 2.03 | 1.81
CCCCN(c1ccc(OC)cc1)c1c2ccccc2nc2ccccc12 | 8.65 | 6.45 | – | 7.11 | 3.44
CCCCN(c1cc(OC)c(OC)c(OC)c1)c1ccnc(C)n1 | 17 | 19.3 | – | 20.2 | 16.8
COc1cc(N(C)c2ccnc3cc(Cl)ccc23)cc(OC)c1OC | 16.1 | 13.3 | – | 14.3 | 11.4
CCCCN(c1ccc(F)c(Cl)c1)c1cccc2ncccc12 | 32.1 | 29.5 | – | 33.8 | 26.7

SMILES | IC50 [1] [µM] | IC50 [2] [µM] | IC50 [3] [µM] | IC50 [4] [µM] | IC50 [5] [µM]
COc1ccc(N(C)c2ccnc(C)c2)cc1 | 18.7 | 15.4 | – | 13.3 | 15.5
c1ccc(Nc2cccc3ncccc23)cc1 | 30.7 | 28.6 | – | 26.4 | 26.8
CN(c1ccc(C#N)cc1)c1cccc2ncccc12 | 36.5 | 25.2 | – | 30.9 | 28.7
COc1ccc2nc3cc(Cl)ccc3c(N(C)c3cc(OC)c(OC)c(OC)c3)c2c1 | 4.01 | 3.79 | – | 3.13 | 2.83
COc1cc(N(C)c2ccnc(C)c2)cc(OC)c1OC | 14.1 | 22.5 | – | 15.3 | 18.6
CCCCN(c1ccc(OC)cc1)c1cccc2ncccc12 | 3.06 | 2.43 | – | 3.78 | 1.37
CCCCN(c1cc(OC)c(OC)c(OC)c1)c1c2ccccc2nc2ccccc12 | 5.3 | 4.68 | – | 4.44 | 3.55
COc1ccc(N(C)c2ccnc(C)n2)cc1 | 6.12 | 4.06 | – | 5.32 | 1.4
CCCCN(c1ccnc(C)c1)c1cc(OC)c(OC)c(OC)c1 | 16.8 | 18.4 | – | 17.3 | 15.6
CCCCN(c1ccc(C#N)cc1)c1cccc2ncccc12 | 42.9 | 33.1 | – | 29.7 | 30.1
COc1ccc(Nc2ccnc(C)n2)cc1 | 13.6 | 10.6 | – | 12.5 | 6.78
CN(c1ccc(F)c(Cl)c1)c1cccc2ncccc12 | 30.9 | 25.5 | – | 23.6 | 20.1
CCCCN(c1ccc(OC)cc1)c1ccnc(C)c1 | 19.7 | 20.2 | – | 22.5 | 18.7
COc1ccc2nc3cc(Cl)ccc3c(Nc3cc(OC)c(OC)c(OC)c3)c2c1 | 8.07 | 6.97 | – | 6.6 | 5.23
COc1ccc(Nc2ccnc3cc(Cl)ccc23)cc1 | 8.79 | 8.32 | – | 9.69 | 6.98
CCCCN(c1ccc(OC)cc1)c1ccnc(C)n1 | 8.61 | 9.06 | – | 9.38 | 6.71
COc1ccc(N(C)c2ccnc3cc(Cl)ccc23)cc1 | 2.67 | 1.38 | – | 4.42 | 0.939
COc1ccc(Nc2ccnc(C)c2)cc1 | 21 | 16.6 | – | 21.1 | 14.8
COc1cc(Nc2ccnc(C)n2)cc(OC)c1OC | 10.6 | 10 | – | 11.5 | 8.18
CCCCN(c1ccc(OC)cc1)c1ccnc2cc(Cl)ccc12 | 6.47 | 6.84 | – | 7.12 | 5.69
COc1cc(N(C)c2ccnc(C)n2)cc(OC)c1OC | 16.2 | 15.4 | – | 14.5 | 12.7
CN(c1ccccc1)c1cccc2ncccc12 | 24 | 18.1 | – | 20.4 | 16
